We go through one compound from patent publication US12613249B2 (THE ROYAL INSTITUTION FOR THE ADVANCEMENT OF LEARNING / …, priority 2019, dated 2026).

SMILES strings stand for the structures. Square brackets hold non-standard residues; d marks the D form. Peptide text beside a SMILES is read from it.

A short description of series [1]: Tolerability of single oral doses. The series is classed as in vivo, C57BL/6 mice. The note with it: single oral doses of 10, 30 and 100 mg/kg, female and male mice. An excerpt:
Animal care and all animal experiments were undertaken with federal guidelines and approval of the Institutional Animal Ethical Committee of McGill University, Montreal, Canada (Protocol Application Number: 2017-7880) and adequate measures were taken to minimize pain or discomfort. C57BL/6 mice were purchased from Charles River laboratories, a total of 144 healthy (7-9 weeks old) male and female (20-25 g) were grouped accordingly and housed in polycarbonate cages, (three mice per cage per sex) in air-conditioned rooms with a 12 h light/dark cycle. Animals were allowed unlimited access to drinking water and standard mouse chow during the study. Animals (n=3) were orally dosed with D-AIP using an oral gavage at 10, 30 and 100 mg/kg respectively prepared in phosphate buffered saline (PBS). […] Pharmacokinetic parameters area under the curve (AUC), maximum concentration reached (Cmax), time at which maximum concentration is reached (Tmax). elimination rate constant (A), elimination half-life (t1/2), apparent total clearance from plasma after oral administration (CI/F), apparent volume of distribution (Vd) and mean residence time (MRT) were calculated using PKSolver, a freely available menu-driven add-in program for Microsoft Excel written in Visual Basic for Applications (VBA), for solving problems in pharmacokinetics.

A short description of series [2]: Ex-vivo stability in mouse whole blood, MALDI-TOF MS. The series is classed as in vitro ADME. As for the experimental part:
The stability of D-AIP in mouse plasma, blood and liver S-9 fraction was investigated to ascertain the metabolic resistance towards proteases and enzymatic activities in these matrices. Whole mouse blood obtained from healthy C57BL/6 male and female mice (6 mice in total) were collected in lithium heparin containing tubes, pooled and stored at 4° C. prior to its use. A fraction of the pooled blood was immediately centrifuged at 1500×g for 10 min at 4° C. to obtain the plasma. The whole blood and plasma samples were spiked with PBS (as control) or AIP (L-AIP, D-AIP or sD-AIP respectively) to make a final concentration of 1 ug/mL and incubated at 37° C. Initial samples were withdrawn to represent t=0 prior to incubation and others were withdrawn 1, 3 and 24 h respectively. Fresh mouse liver also obtained from C57BL/6 male and female mice were pooled, homogenized in 0.15 M Potassium chloride (KCl) and centrifuged at 9000×g. The supernatant represents liver homogenate (S-9) fraction which was mixed with other buffers to formulate the liver S-9 mix as previously described (Kolrep et al., 2017, Toxicol In Vitro, 42:161-170). Liver S-9 mix were spiked with AIP to make a final concentration of 1 μg/mL (L-AIP, D-AIP or sD-AIP respectively) and incubated at 37° C. Just after the addition of NADPH, 100 μL aliquot which represents t=0 samples were withdrawn and others were sampled accordingly at predetermined time points. 400 μL of ice cold MeOH was added to the spiked plasma, blood or liver S-9 fraction respectively, to precipitate the microsomal protein. The samples were then vigorously mixed for 30 s to facilitate extraction and centrifuged for 10 minutes at 13000 rpm, the supernatant was subjected to sample clean up by C18 ZipTip (EMD Millipore Corporation), the eluates were spotted with CHCA matrix on the ground steel MALDI-TOF target and analyzed with MALDI-TOF MS. Applying the t=0 peak area as 100% the intensities of the other time points were compared relatively for interpretation. […]

The nature of series [3]: MALDI-TOF-MSI brain distribution. Type of series: in vivo, C57BL/6 mice. The note with it: single oral dose 10 mg/kg, 4 h post-administration, sagittal brain sections. As for the experimental part: Frozen brains were stored at −80° C. until needed for analysis. Serial sagittal brain sections (10 μm thick) obtained using a cryostat (Leica Microsystems CM1100, Wetzlar, Germany), were thaw mounted onto an indium tin oxide (ITO) coated glass slide (Bruker, Bremen, Germany). Glass slides were removed from deep freeze and immediately transferred to a vacuum desiccator. Following 12 h desiccation time, the slides were scanned using a flatbed scanner (HP LaserJet 3055). The α-cyano-4-hydroxy cinnamic acid (CHCA) matrix (10 mg/mL) was prepared in 50% acetonitrile (ACN) containing 0.1% trifluoroacetic acid (TFA). The matrix solution was sonicated for 10 min and centrifuged at 10 000 rpm for 10 min before transfer to the ImagePrep (Bruker Daltonics). […] A standard solution of D-AIP (1 μg/mL was analyzed using matrix assisted laser desorption ionization time of flight mass spectrometry (MALDI TOF MS) operated both at reflectron and MALDI MS/MS (LIFT) modes respectively with the aid of the UltraflExtreme MALDI TOF/TOF 2 KHz smartbeam laser (Bruker Daltonics, Bremen, Germany) and FlexControl acquisition software ran in positive ion mode. The instrument was calibrated using standard peptide mix spotted with CHCA matrix on the ground steel target (Bruker Daltonics, Bremen, Germany) for 500-1500 m/z. Each spectrum was acquired from 500 laser shots. […]

Regarding `C[C@H](O)[C@@H](NC(=O)CNC(=O)[C@H](N)CCCNC(=N)N)C(=O)N[C@H](Cc1ccccc1)C(=O)N[C@H](CCC(=O)O)C(=O)NCC(=O)N[C@H](CCCCN)C(=O)N[C@H](Cc1ccccc1)C(=O)O` [D-AIP] (H-[dR]G[dT][dF][dE]G[dK][dF]-OH; N-terminus and C-terminus assumed), in series [1], the tolerability result is “well-tolerated with no detectable vital signs of abnormalities”. For the same compound, the “stability, MALDI-TOF MS signal (941 m/z)” value in series [2] (37° C., 24 h) is “relatively stable up to 24 h”. In addition, in series [2] (both sexes, C57BL/6, 24 h incubation, read-out: decrease of signal), the metabolised at 24 h, 1 ug/mL was approximately 50%. Besides, the brain distribution result in series [3] was “distributed across cortex, hippocampus, thalamus and different other brain regions”.
